According to US10392428B2, “GLP-1 derivatives and uses thereof” (Novo Nordisk A/S, priority 2014, dated 2019):
Non-standard residues stand in square brackets, D forms with d. Residues, ends and D or L forms follow the SMILES beside them. Groups on a side chain read outwards from the residue. *: point of attachment. X2 = O=C(O)CCCCCCCCCCCCCCCCCCC(=O)NC[C@H]1CC[C@H](C(=O)N[C@@H](CCC(=O)NCCCC[C@H](NC(=O)CC[C@H](NC(=O)[C@H]2CC[C@H](CNC(=O)CCCCCCCCCCCCCCCCCCC(=O)O)CC2)C(=O)O)C(=O)*)C(=O)O)CC1; Desaminohistidyl = O=C(CCc1c[nH]cn1)*; AEEA = NCCOCCOCC(=O)O; Aib = CC(C)(N)C(=O)O

Legend:
human GLP-1 receptor [1] = molecular target: T1, human GLP-1 receptor (Homo sapiens, UniProt P43220); assay: In vitro potency: CRE luciferase reporter gene assay in BHK cells expressing the human GLP-1 receptor; type: cell-based; conditions: whole cell reporter gene assay, 3 h incubation, average of at least two replicates
T1 construct: expressed in transfected cells; host or cells: membrane preparation from BHK cells, clone FCW467-12A (parent line BHKTS13)
Description: The purpose of this example is to test the activity, or potency, of the GLP-1 derivatives in vitro. The in vitro potency is the measure of human GLP-1 receptor activation in a whole cell assay.
In vitro potency was determined by measuring the response of the human GLP-1 receptor in a reporter gene assay. The assay was performed in a stably transfected BHK cell line that expresses the human GLP-1 receptor and contains the DNA for the cAMP response element (CRE) coupled to a promoter and the gene for firefly luciferase (CRE luciferase). When the human GLP-1 receptor is activated it results in the production of cAMP, which in turn results in the luciferase protein being expressed. When assay incubation is completed the luciferase substrate (luciferin) is added and the enzyme converts luciferin to oxyluciferin to produce bioluminescence. The luminescence is measured as the readout for the assay.
The cells were cultured at 5% CO2 in cell culture medium. They were aliquoted and stored in liquid nitrogen. Before each assay an aliquot was taken up and washed twice in PBS before being suspended at the desired concentration in the assay specific buffer.
Assay medium consisted of DMEM w/o phenol red, 10 mM Hepes and 1χ Glutamax. The assay buffer consisted of 2% ovalbumin and 0.2% Pluronic F-68 in assay medium.
1) Cell stocks were thawed in a 37° C. water bath.
2) Cells were washed three times in PBS.
3) Cells were counted and adjusted to 5×10^3 cells/50 μl (1×10^5 cells/ml) in assay medium. A 50 μl aliquot of cells was transferred to each well in the assay plate.
4) Stocks of the test compounds and reference compounds were diluted to a concentration of 0.2 μM in assay buffer. […] 8) A 100 μl aliquot of steadylite plus reagent was added to each well of the assay plate. […] 10) Each assay plate was read in a BioTek Synergy 2 Multi-Mode Reader.
The data from the BioTek Synergy 2 Multi-Mode Reader were transferred to GraphPad Prism software. […]
A minimum of two replicates was measured for each sample. The reported EC50 values are averages of all of the measured values for each compound.

human GLP-1 receptor [2] = molecular target: T1, human GLP-1 receptor; assay: GLP-1 receptor binding: competitive binding assay (125I-GLP-1, SPA) on isolated membranes at low and high HSA
Description: The purpose of this example is to test the receptor binding of the GLP-1 derivatives in vitro. The receptor binding is a measure of affinity of a derivative for the human GLP-1 receptor.
Each derivative is added in a series of concentrations to isolated membranes containing the human GLP-1 receptor and displacement of the labelled ligand is monitored. The receptor binding is reported as the concentration at which half of the labelled ligand is displaced from the receptor, the IC50 value.
Buffer 1 consisted of 20 mM Na-HEPES plus 10 mM EDTA and pH was adjusted to 7.4. Buffer 2 consisted of 20 mM Na-HEPES plus 0.1 mM EDTA and pH was adjusted to 7.4. Assay buffer consisted of 50 mM HEPES supplemented with 5 mM EGTA, 5 mM MgCl2, 0.005% Tween 20 and pH was adjusted to 7.4. An 8% albumin stock consisted of HSA dissolved at 8% (w/v) in assay buffer. An 0.02% albumin stock consisted of HSA dissolved at 0.02% (w/v) in assay buffer.
The cells express the human GLP-1 receptor.
The cells were grown at 5% CO2 in DMEM, 10% fetal calf serum, 1% Pen/Strep (Penicillin/Streptomycin) and 1.0 mg/ml of the selection marker G418.
To make a membrane preparation the cells were grown to approximately 80% confluence. The cells were washed twice in phosphate-buffered saline and harvested. The cells were pelleted using a brief centrifugation and the cell pellet was kept on ice. […] The homogenate was centrifuged for 15 minutes. The pellet was re-suspended (homogenised) in 10 ml buffer 2 and centrifuged. This step was repeated once more. The resulting pellet was re-suspended in buffer 2 and the protein concentration was determined. The membranes were aliquoted and stored at minus 80° C.
For the receptor binding assay in the presence of low HSA (0.005%) 50 μl of the assay buffer was added to each well of an assay plate.
For the receptor binding assay in the presence of high HSA (2%) 50 μl of the 8% albumin stock was added to each well of an assay plate.
Cell membrane aliquots were thawed and diluted to their working concentration. Fifty μl were added to each well in the assay plate.
WGA SPA beads were suspended in assay buffer at 20 mg/ml. The suspension was diluted to 10 mg/ml in assay buffer just prior to addition to the assay plate. Fifty μl were added to each well in the assay plate.
A 25 μl aliquot was reserved for measuring total counts/well.
The assay plate was incubated for 2 h at 30° C.
The assay plate was centrifuged for 10 min.
The assay plate was read in a Packard TopCount NXT instrument.
The data from the TopCount instrument were transferred to Graph Pad Prism software. Individual replicates were analysed using non-linear regression. IC50 values were calculated by the software and reported in nM. The reported values are averages of all of the measured values for each compound.

[3] = Pharmacokinetic study in minipigs (i.v.); conditions: male, Göttingen, minipig, in vivo, iv; minipigs, i.v., 15 nmol/kg; harmonic mean; read-out: Terminal half-live (converted)
Description: The derivatives of Examples 12, 14, and 15 were dosed 2 nmol/kg. The derivatives of Examples 1 and 2 were dosed 15 nmol/kg.

[4] = High HSA IC50 (nM), high HSA (2.0% final assay concentration)

T1 sequence (P43220 24-463): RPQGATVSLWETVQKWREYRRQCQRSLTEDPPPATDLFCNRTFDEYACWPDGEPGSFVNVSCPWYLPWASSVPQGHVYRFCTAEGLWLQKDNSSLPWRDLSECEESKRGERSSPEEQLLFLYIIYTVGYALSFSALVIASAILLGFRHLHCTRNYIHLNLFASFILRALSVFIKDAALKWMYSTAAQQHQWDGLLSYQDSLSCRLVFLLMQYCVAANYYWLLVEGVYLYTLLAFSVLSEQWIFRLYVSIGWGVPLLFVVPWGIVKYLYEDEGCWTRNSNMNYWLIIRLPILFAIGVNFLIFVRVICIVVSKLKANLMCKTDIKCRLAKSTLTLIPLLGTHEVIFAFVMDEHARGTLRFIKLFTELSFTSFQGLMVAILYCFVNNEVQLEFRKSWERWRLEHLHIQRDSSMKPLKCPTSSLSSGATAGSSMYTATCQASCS

Row | SMILES | EC50 (human GLP-1 receptor [1]) | IC50 (human GLP-1 receptor [2]; [4]) | IC50 (human GLP-1 receptor [2]; Low HSA IC50 (nM), low HSA (max. 0.001% final assay concentration)) | half-life [3]
1 | CC[C@H](C)[C@H](NC(=O)[C@H](Cc1ccccc1)NC(=O)[C@H](CCC(=O)O)NC(=O)[C@H](CCCNC(=N)N)NC(=O)[C@H](C)NC(=O)[C@H](C)NC(=O)[C@H](CCC(N)=O)NC(=O)[C@H](CCC(=O)O)NC(=O)[C@H](CCC(=O)O)NC(=O)[C@H](CC(C)C)NC(=O)[C@H](Cc1ccc(O)cc1)NC(=O)[C@H](CO)NC(=O)[C@H](CO)NC(=O)[C@@H](NC(=O)[C@H](CC(=O)O)NC(=O)[C@H](CO)NC(=O)[C@@H](NC(=O)[C@H](Cc1ccccc1)NC(=O)[C@@H](NC(=O)CNC(=O)[C@H](CCC(=O)O)NC(=O)C(C)(C)NC(=O)[C@@H](N)Cc1c[nH]cn1)[C@@H](C)O)[C@@H](C)O)C(C)C)C(=O)N[C@@H](C)C(=O)N[C@@H](Cc1c[nH]c2ccccc12)C(=O)N[C@@H](CC(C)C)C(=O)N[C@H](C(=O)N[C@@H](CCCNC(=N)N)C(=O)NCC(=O)N[C@@H](CCCNC(=N)N)C(=O)N[C@@H](CCCCNC(=O)COCCOCCNC(=O)COCCOCCNC(=O)[C@H](CCCCNC(=O)CC[C@H](NC(=O)[C@H]1CC[C@H](CNC(=O)CCCCCCCCCCCCCCCCCCC(=O)O)CC1)C(=O)O)NC(=O)CC[C@H](NC(=O)[C@H]1CC[C@H](CNC(=O)CCCCCCCCCCCCCCCCCCC(=O)O)CC1)C(=O)O)C(=O)O)C(C)C [Example 11, N{Epsilon-37}-[2-[2-[2-[[2-[2-[2-[[(2S)-2,6-bis[[(4S)-4-carboxy-4-[[4-[(19-carboxynonadecanoylamino)methyl]cyclohexanecarbonyl]amino]butanoyl]amino]hexanoyl]amino]ethoxy]ethoxy]acetyl]amino]ethoxy]ethoxy]acetyl]-[Aib8,Glu22,Arg26,Arg34,Lys37]-GLP-1-(7-37)-peptide] | 0.13 nM | 150 nM | 1.5 nM | 
2 | CC[C@H](C)[C@H](NC(=O)[C@H](Cc1ccccc1)NC(=O)[C@H](CCC(=O)O)NC(=O)[C@H](CCCNC(=N)N)NC(=O)[C@H](C)NC(=O)[C@H](C)NC(=O)[C@H](CCC(N)=O)NC(=O)[C@H](CCC(=O)O)NC(=O)[C@H](CCC(=O)O)NC(=O)[C@H](CC(C)C)NC(=O)[C@H](Cc1ccc(O)cc1)NC(=O)[C@H](CO)NC(=O)[C@H](CO)NC(=O)[C@@H](NC(=O)[C@H](CC(=O)O)NC(=O)[C@H](CO)NC(=O)[C@@H](NC(=O)[C@H](Cc1ccccc1)NC(=O)[C@@H](NC(=O)CNC(=O)[C@H](CCC(=O)O)NC(=O)C(C)(C)NC(=O)[C@@H](N)Cc1c[nH]cn1)[C@@H](C)O)[C@@H](C)O)C(C)C)C(=O)N[C@@H](C)C(=O)N[C@@H](Cc1c[nH]c2ccccc12)C(=O)N[C@@H](CC(C)C)C(=O)N[C@H](C(=O)N[C@@H](CCCNC(=N)N)C(=O)NCC(=O)N[C@@H](CCCNC(=N)N)C(=O)N[C@@H](CCCCNC(=O)COCCOCCNC(=O)[C@H](CCCCNC(=O)COCCOCCNC(=O)COCCOCCNC(=O)CC[C@H](NC(=O)[C@H]1CC[C@H](CNC(=O)CCCCCCCCCCCCCCCCCCC(=O)O)CC1)C(=O)O)NC(=O)COCCOCCNC(=O)COCCOCCNC(=O)CC[C@H](NC(=O)[C@H]1CC[C@H](CNC(=O)CCCCCCCCCCCCCCCCCCC(=O)O)CC1)C(=O)O)C(=O)O)C(C)C [Example 1, N{Epsilon-37}-[2-[2-[2-[[(2S)-2,6-bis[[2-[2-[2-[[2-[2-[2-[[(4S)-4-carboxy-4-[[4-[(19-carboxynonadecanoylamino)methyl]cyclohexanecarbonyl]amino]butanoyl]amino]ethoxy]ethoxy]acetyl]amino]ethoxy]ethoxy]acetyl]amino]hexanoyl]amino]ethoxy]ethoxy]acetyl]-[Aib8,Glu22,Arg26,Arg34,Lys37]-GLP-1-(7-37)-peptide] |  | 140 nM |  | 6.75 days
3 | CC[C@H](C)[C@H](NC(=O)[C@H](Cc1ccccc1)NC(=O)[C@H](CCC(=O)O)NC(=O)[C@H](CCCNC(=N)N)NC(=O)[C@H](C)NC(=O)[C@H](C)NC(=O)[C@H](CCC(N)=O)NC(=O)[C@H](CCC(=O)O)NC(=O)[C@H](CCC(=O)O)NC(=O)[C@H](CC(C)C)NC(=O)[C@H](Cc1ccc(O)cc1)NC(=O)[C@H](CO)NC(=O)[C@H](CO)NC(=O)[C@@H](NC(=O)[C@H](CC(=O)O)NC(=O)[C@H](CO)NC(=O)[C@@H](NC(=O)[C@H](Cc1ccccc1)NC(=O)[C@@H](NC(=O)CNC(=O)[C@H](CCC(=O)O)NC(=O)C(C)(C)NC(=O)[C@@H](N)Cc1c[nH]cn1)[C@@H](C)O)[C@@H](C)O)C(C)C)C(=O)N[C@@H](C)C(=O)N[C@@H](Cc1c[nH]c2ccccc12)C(=O)N[C@@H](CC(C)C)C(=O)N[C@H](C(=O)N[C@@H](CCCNC(=N)N)C(=O)NCC(=O)N[C@@H](CCCNC(=N)N)C(=O)N[C@@H](CCCCNC(=O)[C@@H](N)CCCCNC(=O)[C@@H](N)CCCCNC(=O)[C@H](CCCCNC(=O)CC[C@H](NC(=O)[C@H]1CC[C@H](CNC(=O)CCCCCCCCCCCCCCCCCCC(=O)O)CC1)C(=O)O)NC(=O)CC[C@H](NC(=O)[C@H]1CC[C@H](CNC(=O)CCCCCCCCCCCCCCCCCCC(=O)O)CC1)C(=O)O)C(=O)O)C(C)C [Example 9, N{Epsilon-37}-[(2S)-2-amino-6-[[(2S)-2-amino-6-[[(2S)-2,6-bis[[(4S)-4-carboxy-4-[[4-[(19-carboxynonadecanoylamino)methyl]cyclohexanecarbonyl]amino]butanoyl]amino]hexanoyl]amino]hexanoyl]amino]hexanoyl]-[Aib8,Glu22,Arg26,Arg34,Lys37]-GLP-1-(7-37)-peptide] |  | 150 nM |  | 
4 | CC[C@H](C)[C@H](NC(=O)[C@H](Cc1ccccc1)NC(=O)[C@H](CCC(=O)O)NC(=O)[C@H](CCCNC(=N)N)NC(=O)[C@H](C)NC(=O)[C@H](C)NC(=O)[C@H](CCC(N)=O)NC(=O)[C@H](CCC(=O)O)NC(=O)[C@H](CCC(=O)O)NC(=O)[C@H](CC(C)C)NC(=O)[C@H](Cc1ccc(O)cc1)NC(=O)[C@H](CO)NC(=O)[C@H](CO)NC(=O)[C@@H](NC(=O)[C@H](CC(=O)O)NC(=O)[C@H](CO)NC(=O)[C@@H](NC(=O)[C@H](Cc1ccccc1)NC(=O)[C@@H](NC(=O)CNC(=O)[C@H](CCC(=O)O)NC(=O)C(C)(C)NC(=O)CCc1cnc[nH]1)[C@@H](C)O)[C@@H](C)O)C(C)C)C(=O)N[C@@H](C)C(=O)N[C@@H](Cc1c[nH]c2ccccc12)C(=O)N[C@@H](CC(C)C)C(=O)N[C@H](C(=O)N[C@@H](CCCNC(=N)N)C(=O)NCC(=O)N[C@@H](CCCNC(=N)N)C(=O)NCC(=O)NCC(=O)N[C@@H](CCCCNC(=O)COCCOCCNC(=O)COCCOCCNC(=O)COCCOCCNC(=O)COCCOCCNC(=O)[C@H](CCCCNC(=O)CC[C@H](NC(=O)[C@H]1CC[C@H](CNC(=O)CCCCCCCCCCCCCCCCCCC(=O)O)CC1)C(=O)O)NC(=O)CC[C@H](NC(=O)[C@H]1CC[C@H](CNC(=O)CCCCCCCCCCCCCCCCCCC(=O)O)CC1)C(=O)O)C(=O)O)C(C)C [Example 6, [Imp7,Aib8,Glu22,Arg26,Arg34]-GLP-1-(7-37)-peptidyl-Gly-N{Epsilon}[2-[2-[2-[[2-[2-[2-[[2-[2-[2-[[2-[2-[2-[[(2S)-2,6-bis[[(4S)-4-carboxy-4-[[4-[(19-carboxynonadecanoylamino)methyl]cyclohexanecarbonyl]amino]butanoyl]amino]hexanoyl]amino]ethoxy]ethoxy]acetyl]amino]ethoxy]ethoxy]acetyl]amino]ethoxy]ethoxy]acetyl]amino]ethoxy]ethoxy]acetyl]Lys] (Desaminohistidyl-[Aib]EGTFTSDVSSYLEEQAAREFIAWLVRGRGGK([AEEA-AEEA-AEEA-AEEA-X2])-OH; C-terminus assumed) | 0.15 nM | 140 nM |  | 
